Experimental data as given in paper PMC12587545, “Noncytotoxic polymyxin derivatives enhance antibiotic action against multidrug-resistant Gram-negative bacteria” (Antimicrobial Agents and Chemotherapy, 2025).
Several values for one entry are separate records, joined by “and”; a condition that tells them apart may be missing. Equal values may be shown once.

Assays:
E. coli = assay: Checkerboard assay (antibiotic potentiation); assay type: cell-based, Escherichia coli; settings: for Interpretation: antibiotic + compound 1; for MICantibiotic + compound: antibiotic MIC with 8 µg/mL (5 µM) compound 1; for MICantibiotic: antibiotic alone; for Potentiation: of antibiotic by 8 µg/mL (5 µM) compound 1
K. pneumoniae = assay: Checkerboard assay (antibiotic potentiation); assay type: cell-based, Klebsiella pneumoniae; settings: for Interpretation: antibiotic + compound 1; for MICantibiotic + compound: antibiotic MIC with 8 µg/mL (5 µM) compound 1; for MICantibiotic: antibiotic alone; for Potentiation: of antibiotic by 8 µg/mL (5 µM) compound 1
E. cloacae = assay: Checkerboard assay (antibiotic potentiation); assay type: cell-based, Enterobacter cloacae; settings: E. cloacae 121887 (colistin-resistant)
A. baumannii = assay: Checkerboard assay (antibiotic potentiation); assay type: cell-based, Acinetobacter baumannii; settings: for MICantibiotic: antibiotic alone
P. aeruginosa = assay: Checkerboard assay (antibiotic potentiation); assay type: cell-based, Pseudomonas aeruginosa; settings: for MICantibiotic: antibiotic alone
E. faecalis ATCC 29212 = assay: Checkerboard assay (rifampicin potentiation); assay type: cell-based
Procedure: (§1) The interaction between the compounds and the antibiotics was evaluated using the fractional inhibitory concentration (FIC) index. FIC indices of ≤0.5 is synergistic, 0.5 < × ≤ 4 is additive, whereas >4 is antagonistic ([34]). […] .
(§2) The bacterial isolates were acquired from ATCC or the Canadian Ward Surveillance (CANWARD) study ([56]). CANWARD isolates were collected from infected patients admitted to participating medical centers across Canada.
(§3) The antibiotic and compounds were serially diluted 2-fold in CAMHB along the x- and y-axis, respectively, on a 96-well plate that was subsequently incubated with equal volumes of bacterial inoculum overnight at 37°C. Wells containing only media were used as negative controls, and wells containing only bacteria were used as positive controls. Synergy was measured by the FIC index, which is the summation of the individual FICs of the antibiotic and the compound. The FIC is calculated by dividing the MIC of one agent in the presence of another by the MIC of the agent alone. Turbidity was confirmed with a Molecular Devices (United States) EMax Plus microplate reader at a wavelength of 590 nm. The FBS studies were conducted by following a previously published protocol ([29], [50]). The FBS was inactivated by heating at 56°C for 30 min with constant swirling.

E. faecium ATCC 27270 = assay: Checkerboard assay (rifampicin potentiation); assay type: cell-based
Procedure: as §1, §2, §3

[1] = tested on: Methicillin-resistant S. aureus ATCC 22592; assay: Checkerboard assay (rifampicin potentiation); assay type: cell-based; settings: MRSA ATCC 22592
Procedure: as §1, §2, §3

[2] = tested on: MDR Gram-negative bacteria clinical isolates; assay: Checkerboard assay, summary over strains; assay type: cell-based; settings: of all 14 clinical isolates; number (%)
[3] = E. coli 94393 (colistin-resistant)
[4] = E. coli 94474 (colistin-resistant)
[5] = K. pneumoniae 113250 (colistin-resistant)
[6] = of rifampicin by 8 µg/mL (5 µM) compound 1
[7] = rifampicin MIC with 8 µg/mL (5 µM) compound 1

Structure (SMILES): CO[C@H]1/C=C/O[C@@]2(C)Oc3c(C)c(O)c4c(O)c(c(/C=N/N5CCN(C)CC5)c(O)c4c3C2=O)NC(=O)/C(C)=C\C=C\[C@H](C)[C@H](O)[C@@H](C)[C@@H](O)[C@@H](C)[C@H](OC(C)=O)[C@@H]1C [Rifampicin]
- Interpretation (E. coli; [3]): Synergy (FIC indices of ≤0.5 is synergistic)
- MICantibiotic + compound (E. coli; [3]): 0.5 µg/mL
- MICantibiotic (E. coli; [3]): >16 µg/mL
- Potentiation (E. coli; [3]): ≥32-fold
- Interpretation (E. coli; [4]): Synergy (FIC indices of ≤0.5 is synergistic)
- MICantibiotic + compound (E. coli; [4]): 0.5 µg/mL
- MICantibiotic (E. coli; [4]): 8 µg/mL
- Potentiation (E. coli; [4]): 16 fold
- Interpretation (K. pneumoniae; [5]): Synergy (FIC indices of ≤0.5 is synergistic)
- MICantibiotic + compound (K. pneumoniae; [5]): 2 µg/mL
- MICantibiotic (K. pneumoniae; [5]): 32 µg/mL
- Potentiation (K. pneumoniae; [5]): 16 fold
- Interpretation (K. pneumoniae; K. pneumoniae 116381): Synergy (FIC indices of ≤0.5 is synergistic)
- MICantibiotic + compound (K. pneumoniae; K. pneumoniae 116381): 0.25 µg/mL
- MICantibiotic (K. pneumoniae; K. pneumoniae 116381): >256 µg/mL
- Potentiation (K. pneumoniae; K. pneumoniae 116381): ≥2048-fold
- Interpretation (E. cloacae; antibiotic + compound 1): Synergy (FIC indices of ≤0.5 is synergistic)
- MICantibiotic + compound (E. cloacae; antibiotic MIC with 8 µg/mL (5 µM) compound 1): 1 µg/mL
- MICantibiotic (E. cloacae; antibiotic alone): >4 µg/mL
- Potentiation (E. cloacae; of antibiotic by 8 µg/mL (5 µM) compound 1): ≥8-fold
- Interpretation (A. baumannii; A. baumannii 92247 (colistin-resistant), antibiotic + compound 1): Synergy (FIC indices of ≤0.5 is synergistic)
- MICantibiotic + compound (A. baumannii; A. baumannii 92247 (colistin-resistant), antibiotic MIC with 4 µg/mL (2 µM) compound 1): 0.031 µg/mL
- MICantibiotic (A. baumannii; A. baumannii 92247 (colistin-resistant)): 4 µg/mL
- Potentiation (A. baumannii; A. baumannii 92247 (colistin-resistant), of antibiotic by 4 µg/mL (2 µM) compound 1): 128 fold
- Interpretation (A. baumannii; A. baumannii 110193, antibiotic + compound 1): Synergy (FIC indices of ≤0.5 is synergistic)
- MICantibiotic + compound (A. baumannii; A. baumannii 110193, antibiotic MIC with 4 µg/mL (2 µM) compound 1): 0.004 µg/mL
- MICantibiotic (A. baumannii; A. baumannii 110193): 4 µg/mL
- Potentiation (A. baumannii; A. baumannii 110193, of antibiotic by 4 µg/mL (2 µM) compound 1): ≥1024-fold
- Interpretation (A. baumannii; A. baumannii AB027, antibiotic + compound 1): Synergy (FIC indices of ≤0.5 is synergistic)
- MICantibiotic + compound (A. baumannii; A. baumannii AB027, antibiotic MIC with 4 µg/mL (2 µM) compound 1): 0.004 µg/mL
- MICantibiotic (A. baumannii; A. baumannii AB027): 2 µg/mL
- Potentiation (A. baumannii; A. baumannii AB027, of antibiotic by 4 µg/mL (2 µM) compound 1): ≥512-fold
- Interpretation (A. baumannii; A. baumannii AB031, antibiotic + compound 1): Synergy (FIC indices of ≤0.5 is synergistic)
- MICantibiotic + compound (A. baumannii; A. baumannii AB031, antibiotic MIC with 4 µg/mL (2 µM) compound 1): 0.004 µg/mL
- MICantibiotic (A. baumannii; A. baumannii AB031): 4 µg/mL
- Potentiation (A. baumannii; A. baumannii AB031, of antibiotic by 4 µg/mL (2 µM) compound 1): ≥1024-fold
- Interpretation (A. baumannii; A. baumannii ATCC 17978, antibiotic + compound 1): Synergy (FIC indices of ≤0.5 is synergistic)
- Interpretation (A. baumannii; A. baumannii ATCC 17978, antibiotic + compound 3): Additive (0.5 < × ≤ 4 is additive)
- MICantibiotic + compound (A. baumannii; A. baumannii ATCC 17978, antibiotic MIC with 8 µg/mL (5 µM) compound 3): 2 µg/mL
- MICantibiotic + compound (A. baumannii; A. baumannii ATCC 17978, antibiotic MIC with ¼ MIC (≤5 µM) of compound 1): 0.016 µg/mL
- MICantibiotic (A. baumannii; A. baumannii ATCC 17978): 8 µg/mL and 4 µg/mL
- Potentiation (A. baumannii; A. baumannii ATCC 17978, of antibiotic by 8 µg/mL (5 µM) compound 3): 2 fold
- Potentiation (A. baumannii; A. baumannii ATCC 17978, of antibiotic by ¼ MIC (≤5 µM) of compound 1): ≥512-fold
- Interpretation (P. aeruginosa; P. aeruginosa 259-96916, antibiotic + compound 1): Synergy (FIC indices of ≤0.5 is synergistic)
- MICantibiotic + compound (P. aeruginosa; P. aeruginosa 259-96916, antibiotic MIC with 8 µg/mL (5 µM) compound 1): 0.031 µg/mL
- MICantibiotic (P. aeruginosa; P. aeruginosa 259-96916): 16 µg/mL
- Potentiation (P. aeruginosa; P. aeruginosa 259-96916, of antibiotic by 8 µg/mL (5 µM) compound 1): ≥512-fold
- Interpretation (P. aeruginosa; P. aeruginosa 262-101856, antibiotic + compound 1): Synergy (FIC indices of ≤0.5 is synergistic)
- MICantibiotic + compound (P. aeruginosa; P. aeruginosa 262-101856, antibiotic MIC with 8 µg/mL (5 µM) compound 1): 2 µg/mL
- MICantibiotic (P. aeruginosa; P. aeruginosa 262-101856): 512 µg/mL
- Potentiation (P. aeruginosa; P. aeruginosa 262-101856, of antibiotic by 8 µg/mL (5 µM) compound 1): 256 fold
- Interpretation (P. aeruginosa; P. aeruginosa 264-105354, antibiotic + compound 1): Synergy (FIC indices of ≤0.5 is synergistic)
- MICantibiotic (P. aeruginosa; P. aeruginosa 264-105354): 32 µg/mL
- Potentiation (P. aeruginosa; P. aeruginosa 264-105354, of antibiotic by 8 µg/mL (5 µM) compound 1): ≥256-fold
- Interpretation (P. aeruginosa; P. aeruginosa 101243 (colistin-resistant), antibiotic + compound 1): Synergy (FIC indices of ≤0.5 is synergistic)
- MICantibiotic + compound (P. aeruginosa; P. aeruginosa 101243 (colistin-resistant), antibiotic MIC with 8 µg/mL (5 µM) compound 1): 2 µg/mL
- MICantibiotic (P. aeruginosa; P. aeruginosa 101243 (colistin-resistant)): 16 µg/mL
- Potentiation (P. aeruginosa; P. aeruginosa 101243 (colistin-resistant), of antibiotic by 8 µg/mL (5 µM) compound 1): 8 fold
- Interpretation (P. aeruginosa; P. aeruginosa 114228 (colistin-resistant), antibiotic + compound 1): Additive (0.5 < × ≤ 4 is additive)
- MICantibiotic + compound (P. aeruginosa; P. aeruginosa 114228 (colistin-resistant), antibiotic MIC with 8 µg/mL (5 µM) compound 1): 8 µg/mL
- MICantibiotic (P. aeruginosa; P. aeruginosa 114228 (colistin-resistant)): 16 µg/mL
- Potentiation (P. aeruginosa; P. aeruginosa 114228 (colistin-resistant), of antibiotic by 8 µg/mL (5 µM) compound 1): 2 fold
- Interpretation (P. aeruginosa; P. aeruginosa PAO1, antibiotic + compound 1): Synergy (FIC indices of ≤0.5 is synergistic)
- Interpretation (P. aeruginosa; P. aeruginosa PAO1, antibiotic + compound 3): Additive (0.5 < × ≤ 4 is additive)
- MICantibiotic + compound (P. aeruginosa; P. aeruginosa PAO1, antibiotic MIC with 8 µg/mL (5 µM) compound 1): 0.063 µg/mL
- MICantibiotic + compound (P. aeruginosa; P. aeruginosa PAO1, antibiotic MIC with 8 µg/mL (5 µM) compound 3): 32 µg/mL
- MICantibiotic (P. aeruginosa; P. aeruginosa PAO1): 16 µg/mL and 32 µg/mL
- Potentiation (P. aeruginosa; P. aeruginosa PAO1, of antibiotic by 8 µg/mL (5 µM) compound 1): ≥256-fold
- Potentiation (P. aeruginosa; P. aeruginosa PAO1, of antibiotic by 8 µg/mL (5 µM) compound 3): 1 fold
- Potentiation (E. faecalis ATCC 29212; [6]): 1 fold
- Interpretation (E. faecalis ATCC 29212; rifampicin + compound 1): Additive (0.5 < × ≤ 4 is additive)
- MICantibiotic + compound (E. faecalis ATCC 29212; [7]): 0.5 µg/mL
- MICantibiotic (E. faecalis ATCC 29212; rifampicin alone): 0.5 µg/mL
- Potentiation (E. faecium ATCC 27270; [6]): 1 fold
- Interpretation (E. faecium ATCC 27270; rifampicin + compound 1): Additive (0.5 < × ≤ 4 is additive)
- MICantibiotic + compound (E. faecium ATCC 27270; [7]): 0.031 µg/mL
- MICantibiotic (E. faecium ATCC 27270; rifampicin alone): 0.031 µg/mL
- Potentiation [1, 6]: 1 fold
- Interpretation ([1]; rifampicin + compound 1): Additive (0.5 < × ≤ 4 is additive)
- MICantibiotic + compound [1, 7]: 512 µg/mL
- MICantibiotic ([1]; rifampicin alone): 512 µg/mL
- clinical isolates in which the antibiotic was synergized by compound 1 [2]: 13 (93%) strains
